The values below come from patent publication US20250388575A1, “HETEROBIFUNCTIONAL COMPOUNDS AND METHODS OF TREATING DISEASE” (Halda Therapeutics OpCo, Inc., priority 2022, published 2025).

One experiment addresses BRD4-BD2 (Homo sapiens (Human), UniProt O60885). Kind of experiment: bromoKdELECT assay for binding affinity to BRD4-BD2. The note with it: 11-point 3-fold dilution. How it is done:
(§1) Compounds were tested using a bromoKdELECT assay. T7 phage strains displaying bromodomains were grown in parallel in 24-well blocks in an E. coli host derived from the BL21 strain. E. coli were grown to log-phase and infected with T7 phage from a frozen stock (multiplicity of infection=0.4) and incubated with shaking at 32° C. until lysis (90-150 minutes). The lysates were centrifuged (5,000×g) and filtered (0.2 μm) to remove cell debris. Streptavidin-coated magnetic beads were treated with biotinylated small molecule or acetylated peptide ligands for 30 minutes at room temperature to generate affinity resins for bromodomain assays. The liganded beads were blocked with excess biotin and washed with blocking buffer (SeaBlock (Pierce), 1% BSA, 0.05% Tween 20, 1 mM DTT) to remove unbound ligand and to reduce nonspecific phage binding. Binding reactions were assembled by combining bromodomains, liganded affinity beads, and test compounds in 1× binding buffer (17% SeaBlock, 0.33×PBS, 0.04% Tween 20, 0.02% BSA, 0.004% Sodium azide, 7.4 mM DTT). Test compounds were prepared as 1000× stocks in 100% DMSO. Kds were determined using an 11-point 3-fold compound dilution series with one DMSO control point. All compounds for Kd measurements are distributed by acoustic transfer (non-contact dispensing) in 100% DMSO. The compounds were then diluted directly into the assays such that the final concentration of DMSO was 0.09%. All reactions performed in polypropylene 384-well plates. Each was a final volume of 0.02 ml. The assay plates were incubated at room temperature with shaking for 1 hour and the affinity beads were washed with wash buffer (1×PBS, 0.05% Tween 20). The beads were then resuspended in elution buffer (1×PBS, 0.05% Tween 20, 2 μM non-biotinylated affinity ligand) and incubated at room temperature with shaking for 30 minutes. The bromodomain concentration in the eluates was measured by qPCR.

The test system of a further experiment is VCaP cells. Description: Cellular growth inhibition assay for VCaP cells, CellTiter-Glo. The experiment is classed as cell-based, human. The note with it: VCaP cells, 72 hours, CellTiter-Glo, read-out: GI50. An outline of the steps: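 GI50 values come from four-parameter curve fits of luminescence data normalized to a zero baseline. Compound, in medium with 0.5% DMSO, was added one day after plating and left for 72 h before CellTiter-Glo 2.0 addition.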
For orientation: Cellular ATP, detected with luciferase, serves as a proxy for viable cell number.

The test system of experiment [1] is T-Rex 293 cell line SC3 cells lacking increased expression of androgen receptor protein. Description: Cellular growth inhibition, T-Rex 293 SC3 cells lacking increased androgen receptor expression (no doxycycline), CellTiter-Glo. Type of experiment: cell-based. The note with it: T-Rex 293 SC3 cells lacking increased androgen receptor expression (not exposed to doxycycline), 72 hours, CellTiter-Glo; read-out: GI50. Summed up: (§2)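 SC3, a T-Rex 293 clone with doxycycline-inducible wild-type androgen receptor, was seeded in phenol red-free DMEM with 10% charcoal-dextran FBS, with or without 10 ng/mL doxycycline. Compound added at 24 h (0.5% DMSO) for 72 h at 37° C. CellTiter-Glo 2.0 luminescence; GI50 from four-parameter fit.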

Experiment [2] concerns T-Rex 293 cell line SC3 cells having increased expression of androgen receptor protein. Kind of experiment: Cellular growth inhibition, T-Rex 293 SC3 cells with increased androgen receptor expression (doxycycline), CellTiter-Glo. The settings on record: T-Rex 293 SC3 cells with increased androgen receptor expression (exposed to 10 ng/mL doxycycline), 72 hours, CellTiter-Glo; read-out: GI50. Type of experiment: cell-based. Summed up:
as §2

The target in another experiment is BRD4-BD1 (Homo sapiens (Human), UniProt O60885). Kind of experiment: bromoKdELECT assay for binding affinity to BRD4-BD1. The settings on record: 11-point 3-fold dilution. How it is done:
as §1

Another experiment relates to T47D cells. Description: Cellular growth inhibition assay for T47D cells, CellTiter-Glo. The experiment is classed as cell-based, human. The note with it: 72 hours treatment, CellTiter-Glo 2.0. An outline of the steps: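 Growth inhibition as GI50, fitted with four parameters to CellTiter-Glo luminescence after 72 h of compound exposure (0.5% DMSO). Cells were T47D, grown in insulin-supplemented (0.2 units/mL) DMEM with 10% FBS and treated one day post-seeding.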

Where two headings read alike, the source gives them in different places.

The Kd is the concentration at which binding is half-saturated. A higher Kd goes with a looser complex. Usually GI50 stands for the concentration at which growth is held to half of that of the control. As to `CCS(=O)(=O)Nc1ccc(Oc2cccc(OCCOCCOCCOCCOCCOC3CCN(c4ccc(C(=O)N[C@H]5CC[C@H](Oc6ccc(C#N)c(Cl)c6)CC5)nn4)CC3)c2)c(-c2cn(C)c(=O)c3[nH]ccc23)c1` [I-3, N-[4-(3-chloro-4-cyano-phenoxy)cyclohexyl]-6-[4-[2-[2-[2-[2-[2-[3-[4-(ethylsulfonylamino)-2-(6-methyl-7-oxo-1H-pyrrolo[2,3-c]pyridin-4-yl)phenoxy]phenoxy]ethoxy]ethoxy]ethoxy]ethoxy]ethoxy]-1-piperidyl]pyridazine-3-carboxamide], the Kd on BRD4-BD2 and on BRD4-BD1 was below 50 nM each time. The GI50 with VCaP cells (Homo sapiens) is below 500 nM; in experiment [1], above 3000 nM; in experiment [2] it was below 500 nM.

Take `CCS(=O)(=O)c1ccc(Oc2cccc(OCCCC3CCN(c4ccc(C(=O)N[C@H]5CC[C@H](Oc6ccc(C#N)c(Cl)c6)CC5)nn4)CC3)c2F)c(-c2cn(C)c(=O)c3[nH]ccc23)c1` [I-15]: the dissociation constant (Kd) on BRD4-BD2 and on BRD4-BD1 was 500 to 2500 nM throughout. For the same compound, the GI50 (in the experiment with VCaP cells (Homo sapiens); in experiment [1]; in experiment [2]) was below 500 nM in each case.

`CCS(=O)(=O)Cc1ccc(Oc2cccc(OCCCC3CCN(c4ccc(C(=O)N[C@H]5CC[C@H](Oc6ccc(C#N)c(Cl)c6)CC5)nn4)CC3)c2F)c(-c2cn(C)c(=O)c3[nH]ccc23)c1` [I-20]: the Kd on BRD4-BD2 and at BRD4-BD1 was 500 to 2500 nM throughout. In addition, the GI50 (with VCaP cells (Homo sapiens); in experiment [1]; in experiment [2]) was below 500 nM each time.

Regarding `CCS(=O)(=O)Cc1ccc(Oc2cccc(CCCOC3CCN(c4ccc(C(=O)N[C@H]5CC[C@H](Oc6ccc(C#N)c(Cl)c6)CC5)nn4)CC3)c2F)c(-c2cn(C)c(=O)c3[nH]ccc23)c1` [I-29], the Kd on BRD4-BD2 and on BRD4-BD1 was 50 to 500 nM throughout. The GI50 (in the experiment on VCaP cells (Homo sapiens); in experiment [1]; in experiment [2]) was below 500 nM each time.

Consider `CCS(=O)(=O)Nc1ccc(Oc2ccc(CCOC3CCN(c4ccc(C(=O)N[C@H]5CC[C@H](Oc6ccc(C#N)c(Cl)c6)CC5)nn4)CC3)cc2)c(-c2cn(C)c(=O)c3[nH]ccc23)c1` [I-35], for which the Kd at BRD4-BD2 and on BRD4-BD1 was below 50 nM each time. The GI50 (in the experiment on VCaP cells (Homo sapiens); in experiment [1]; in experiment [2]) was below 500 nM each time.

Regarding `CCS(=O)(=O)Nc1ccc(Oc2ccc(CCC3CCN(c4ccc(C(=O)N[C@H]5CC[C@H](Oc6ccc(C#N)c(Cl)c6)CC5)nn4)CC3)cc2)c(-c2cn(C)c(=O)c3[nH]ccc23)c1` [I-38], the Kd on BRD4-BD2 and on BRD4-BD1 was 500 to 2500 nM each time. For the same compound, the GI50 (in the experiment on VCaP cells; with T47D cells; in experiment [1]; in experiment [2]) was below 500 nM in each case.

As for `CCS(=O)(=O)c1ccc(Oc2cccc(OCCC3CCN(c4ccc(C(=O)N[C@H]5CC[C@H](Oc6ccc(C#N)c(Cl)c6)CC5)nn4)CC3)c2F)c(-c2cn(C)c(=O)c3[nH]ccc23)c1` [I-42], the Kd at BRD4-BD2 and at BRD4-BD1 was 500 to 2500 nM in each case. For the same compound, the GI50 (in the experiment on VCaP cells; in the experiment on T47D cells; in experiment [1]; in experiment [2]) was below 500 nM throughout.

On to `CCS(=O)(=O)c1ccc(Oc2ccc(CCC3CCN(c4ccc(C(=O)N[C@H]5CC[C@H](Oc6ccc(C#N)c(Cl)c6)CC5)nn4)CC3)cc2)c(-c2cn(C)c(=O)c3[nH]ccc23)c1` [I-50], for which the dissociation constant (Kd) on BRD4-BD2 and at BRD4-BD1 was 50 to 500 nM in each case. The GI50 (with VCaP cells; in the experiment with T47D cells; in experiment [1]; in experiment [2]) was below 500 nM throughout.

As to `CCS(=O)(=O)Cc1ccc(Oc2ccc(CCC3CCN(c4ccc(C(=O)NC5CCC(Oc6ccc(C#N)c(Cl)c6)CC5)nn4)CC3)cc2)c(-c2cn(C)c(=O)c3[nH]ccc23)c1` (stereo not shown) [I-154, N-[4-(3-chloro-4-cyano-phenoxy)cyclohexyl]-6-[4-[2-[4-[4-(ethylsulfonylmethyl)-2-(6-methyl-7-oxo-1H-pyrrolo[2,3-c]pyridin-4-yl)phenoxy]phenyl]ethyl]-1-piperidyl]pyridazine-3-carboxamide], the Kd at BRD4-BD2 and at BRD4-BD1 was 500 to 2500 nM throughout. For the same compound, the GI50 (with VCaP cells; in experiment [1]; in experiment [2]) was below 500 nM in each case.

Consider `Cn1cc(-c2cc(NC(=O)CCC3CCN(c4ccc(C(=O)N[C@H]5CC[C@H](Oc6ccc(C#N)c(Cl)c6)CC5)nn4)CC3)ccc2Oc2ccc(F)cc2F)c2cc[nH]c2c1=O` [I-213], for which the Kd on BRD4-BD2 and at BRD4-BD1 was 500 to 2500 nM in each case. Further, the 50% growth inhibitory concentration (GI50) is 1500 to 3000 nM with VCaP cells, 500 to 1500 nM in experiment [1] and below 500 nM in experiment [2].

As to `Cn1cc(-c2cc(C(C)(C)O)ccc2CN2CC(CC3CCN(c4ccc(C(=O)NC5CCC(Oc6ccc(C#N)c(Cl)c6)CC5)nn4)CC3)C2)c2cc[nH]c2c1=O` (stereo not shown) [I-248, N-[4-(3-chloro-4-cyano-phenoxy)cyclohexyl]-6-[4-[[1-[[4-(1-hydroxy-1-methyl-ethyl)-2-(6-methyl-7-oxo-1H-pyrrolo[2,3-c]pyridin-4-yl)phenyl]methyl]azetidin-3-yl]methyl]-1-piperidyl]pyridazine-3-carboxamide], the 50% growth inhibitory concentration (GI50) was above 3000 nM in the experiment on VCaP cells (Homo sapiens), 500 to 1500 nM in the experiment with T47D cells (Homo sapiens), 1500 to 3000 nM in experiment [1] and 500 to 1500 nM in experiment [2].

For `Cn1cc(-c2cc(C3CCS(=O)(=O)CC3)ccc2Oc2ccc(CCC3CCN(c4ccc(C(=O)NC5CCC(Oc6ccc(C#N)c(Cl)c6)CC5)nn4)CC3)cc2)c2cc[nH]c2c1=O` (stereo not shown) [I-250, N-[4-(3-chloro-4-cyano-phenoxy)cyclohexyl]-6-[4-[2-[4-[4-(1,1-dioxothian-4-yl)-2-(6-methyl-7-oxo-1H-pyrrolo[2,3-c]pyridin-4-yl)phenoxy]phenyl]ethyl]-1-piperidyl]pyridazine-3-carboxamide], the GI50 in the experiment on VCaP cells (Homo sapiens) was 500 to 1500 nM; in the experiment on T47D cells (Homo sapiens), 500 to 1500 nM; in experiment [1], below 500 nM; in experiment [2], below 500 nM.

In the case of `CCS(=O)(=O)c1ccc(C(F)(F)c2ccc(CCC3CCN(c4ccc(C(=O)NC5CCC(Oc6ccc(C#N)c(Cl)c6)CC5)nn4)CC3)cc2)c(-c2cn(C)c(=O)c3[nH]ccc23)c1` (stereo not shown) [I-251, N-((1r,4r)-4-(3-chloro-4-cyanophenoxy)cyclohexyl)-6-(4-(4-((4-(ethylsulfonyl)-2-(6-methyl-7-oxo-6,7-dihydro-1H-pyrrolo[2,3-c]pyridin-4-yl)phenyl)difluoromethyl)phenethyl)piperidin-1-yl)pyridazine-3-carboxamide], the GI50 in the experiment with VCaP cells is above 3000 nM; in the experiment with T47D cells it was below 500 nM; in experiment [1], above 3000 nM; in experiment [2] it was below 500 nM.

As for `Cn1cc(-c2cc(C3CCCS3(=O)=O)ccc2Oc2ccc(CCC3CCN(c4ccc(C(=O)NC5CCC(Oc6ccc(C#N)c(Cl)c6)CC5)nn4)CC3)cc2)c2cc[nH]c2c1=O` (stereo not shown) [I-252, N-[4-(3-chloro-4-cyano-phenoxy)cyclohexyl]-6-[4-[2-[4-[4-(1,1-dioxothiolan-2-yl)-2-(6-methyl-7-oxo-1Hpyrrolo[2,3-c]pyridin-4-yl)phenoxy]phenyl]ethyl]-1-piperidyl]pyridazine-3-carboxamide], the GI50 is below 500 nM with VCaP cells (Homo sapiens), 500 to 1500 nM with T47D cells (Homo sapiens), above 3000 nM in experiment [1] and below 500 nM in experiment [2].

On to `Cn1cc(-c2cc(C(C)(C)O)ccc2Oc2ccc(C3CN(C4CCN(c5ccc(C(=O)N[C@H]6CC[C@H](Oc7ccc(C#N)c(Cl)c7)CC6)nn5)CC4)C3)cc2)c2cc[nH]c2c1=O` [I-254], for which the concentration for 50% growth inhibition (GI50) in the experiment with VCaP cells (Homo sapiens) is below 500 nM; with T47D cells (Homo sapiens), 1500 to 3000 nM; in experiment [1], 500 to 1500 nM; in experiment [2] it was below 500 nM.
